{"source": "paper PMC11079024", "about": "“Identification of a family of species-selective complex I inhibitors as potential anthelmintics” (Nature Communications, 2024)", "system": "anthelmintic/nematicide-resistant C. elegans mutant strains", "assay": "microbe, parasite or virus in culture", "settings": "for LC50: Caenorhabditis elegans", "description": "In addition to the Caenorhabditis elegans wild-type N2 strain, this work included the following C. elegans strains: CB1003 (kynu-1(e1003) X); anthelmintic-resistant strains—CB3474 (ben-1(e1880) III), CB193 (unc-29(e193) I), HY496 (bre-1(ye4) IV), RB2119 (acr-23(ok2804) V), JD608 (avr-14(ad1302) I; avr-15(ad1051) V; glc-1 (pk54) V), NM1968 (slo-1(js379) V), RP2635 (mev-1(tr355) III); benzimidazole-resistant CRISPR strains—ECA882 (ben-1(ean64) III), ECA917 (ben-1(ean98) III), ECA1075 (ben-1(ean143) III), ECA1080 (ben-1(ean148) III). This work also featured several additional free-living nematode strains: C. briggsae strain AF16, P. pacificus strain PS312, and P. hermaphrodita strain B178. The four CRISPR-generated benzimidazole-resistant C. elegans mutants were generously provided by Prof. Erik Andersen (Johns Hopkins University); PS312 and B178 were generously provided by Prof. Peter Roy (University of Toronto); all other strains were obtained from the Caenorhabditis Genetics Center (CGC, University of Minnesota). All strains were cultured and propagated at 20 °C on NGM (nematode growth medium) agar plates seeded with E. coli OP50 (Stiernagle, 2006)[56].\nLiquid development and viability assays were adapted from a previously established chemical screening protocol (Burns et al.)[24]. In brief, a saturated culture of E. coli HB101 was concentrated 2-fold in liquid NGM and 40 μL of this suspension was distributed to each well of a 96-well flat-bottom culture plate. 0.5 μL chemical solution (or DMSO alone) was added to each well (1% DMSO v/v) using either a multi-channel pipette or a pinning tool (V&P Scientific). L1 worms synchronized from an embryo preparation performed the day prior were diluted to a concentration of ~2 worms/μL in M9 buffer; 10 μL worm suspension was then added to each well. Culture plates were sealed with parafilm and placed in a plastic container lined with wet paper towels to prevent evaporation. Containers were then incubated for 6 days at 20 °C with shaking at 165 rpm. Following incubation, 300 μL M9 was added to each well to decrease the turbidity of the HB101-NGM suspension. Single images of each microplate well were then taken on a Nikon Ti Eclipse inverted microscope (Nikon NIS Elements AR). Images were processed using Python scripts to isolate worm-associated pixels from background. Scores of worm development and viability were determined as the sum of worm-associated pixels in each well. Development/viability scores for each well were divided by the development /viability scores for the corresponding DMSO controls, resulting in a relative viability value for each chemical. At least three biological replicates were performed for each dose-response experiment; relative viability values were averaged across replicates.\nSupplementary Table 2. Sensitivity of anthelmintic/nematicide-resistant strains to Class A, B, and C\nbenzimidazole complex I inhibitors.\nLC50s were estimated from fitted dose-\nresponse curves; all dose response data are the mean of at least three biological replicates.\nSupplementary Table 2. Davie et al.", "key": {"[1]": {"settings": "read-out: C. elegans Development & Viability LC50, acr-23(ok2804)"}, "[2]": {"settings": "read-out: C. elegans Development & Viability LC50, avr-14(ad1302), avr-15(ad1051), glc-1(pk54)"}, "[3]": {"settings": "read-out: C. elegans Development & Viability LC50, ben-1(e1880)"}, "[4]": {"settings": "read-out: C. elegans Development & Viability LC50, bre-1(ye4)"}, "[5]": {"settings": "read-out: C. elegans Development & Viability LC50, mev-1(tr355)"}, "[6]": {"settings": "read-out: C. elegans Development & Viability LC50, slo-1(js379)"}, "[7]": {"settings": "read-out: C. elegans Development & Viability LC50, unc-29(e193)"}}, "note": "Like-named read-outs stand apart in the source and are kept apart here."}
{"smiles": "CC(C)Cc1ccc(C(C)c2nc3ccccc3n2C)cc1", "note": "(centres unmarked) [NPD8790]", "values": [{"measurement": "LC50", "setting": "[1]", "value": "> 1000", "unit": "µM"}, {"measurement": "LC50", "setting": "[2]", "value": "> 1000", "unit": "µM"}, {"measurement": "LC50", "setting": "[3]", "value": "> 1000", "unit": "µM"}, {"measurement": "LC50", "setting": "[4]", "value": "> 1000", "unit": "µM"}, {"measurement": "LC50", "setting": "[5]", "value": "> 1000", "unit": "µM"}, {"measurement": "LC50", "setting": "[6]", "value": 177, "unit": "µM"}, {"measurement": "LC50", "setting": "[7]", "value": "> 1000", "unit": "µM"}]}
{"smiles": "C=C(C)[C@H]1Cc2c(ccc3c2O[C@@H]2COc4cc(OC)c(OC)cc4[C@@H]2C3=O)O1", "note": "[Rotenone, reference compound]", "values": [{"measurement": "LC50", "setting": "[1]", "value": 2.1, "unit": "µM"}, {"measurement": "LC50", "setting": "[2]", "value": 1.4, "unit": "µM"}, {"measurement": "LC50", "setting": "[3]", "value": 3.4, "unit": "µM"}, {"measurement": "LC50", "setting": "[4]", "value": 3.5, "unit": "µM"}, {"measurement": "LC50", "setting": "[5]", "value": 3.2, "unit": "µM"}, {"measurement": "LC50", "setting": "[6]", "value": 1, "unit": "µM"}, {"measurement": "LC50", "setting": "[7]", "value": 1.5, "unit": "µM"}]}
{"smiles": "c1ccc2[nH]c(-c3cscn3)nc2c1", "note": "[Thiabendazole]", "values": [{"measurement": "C. elegans L1 relative development & viability", "setting": "CB3474 G104D (ben-1), 1 µM, score 0-1 relative to DMSO, values >1 set to 1", "value": 1.000}, {"measurement": "C. elegans L1 relative development & viability", "setting": "CB3474 G104D (ben-1), 2 µM, score 0-1 relative to DMSO, values >1 set to 1", "value": 1.000}, {"measurement": "C. elegans L1 relative development & viability", "setting": "CB3474 G104D (ben-1), 3.9 µM, score 0-1 relative to DMSO, values >1 set to 1", "value": 1.000}, {"measurement": "C. elegans L1 relative development & viability", "setting": "CB3474 G104D (ben-1), 15.6 µM, score 0-1 relative to DMSO, values >1 set to 1", "value": 1.000}, {"measurement": "C. elegans L1 relative development & viability", "setting": "CB3474 G104D (ben-1), 31.3 µM, score 0-1 relative to DMSO, values >1 set to 1", "value": 1.000}, {"measurement": "C. elegans L1 relative development & viability", "setting": "CB3474 G104D (ben-1), 62.5 µM, score 0-1 relative to DMSO, values >1 set to 1", "value": 1.000}, {"measurement": "C. elegans L1 relative development & viability", "setting": "CB3474 G104D (ben-1), 125 µM, score 0-1 relative to DMSO, values >1 set to 1", "value": 1.000}, {"measurement": "C. elegans L1 relative development & viability", "setting": "CB3474 G104D (ben-1), 250 µM, score 0-1 relative to DMSO, values >1 set to 1", "value": 1.000}, {"measurement": "C. elegans L1 relative development & viability", "setting": "CB3474 G104D (ben-1), 500 µM, […]", "value": 0.035}, {"measurement": "C. elegans L1 relative development & viability", "setting": "ECA917 F200Y (ben-1), 1 µM, score 0-1 relative to DMSO, values >1 set to 1", "value": 1.000}, {"measurement": "C. elegans L1 relative development & viability", "setting": "ECA917 F200Y (ben-1), 2 µM, score 0-1 relative to DMSO, values >1 set to 1", "value": 1.000}, {"measurement": "C. elegans L1 relative development & viability", "setting": "ECA917 F200Y (ben-1), 3.9 µM, score 0-1 relative to DMSO, values >1 set to 1", "value": 1.000}, {"measurement": "C. elegans L1 relative development & viability", "setting": "ECA917 F200Y (ben-1), 15.6 µM, score 0-1 relative to DMSO, values >1 set to 1", "value": 1.000}, {"measurement": "C. elegans L1 relative development & viability", "setting": "ECA917 F200Y (ben-1), 31.3 µM, score 0-1 relative to DMSO, values >1 set to 1", "value": 1.000}, {"measurement": "C. elegans L1 relative development & viability", "setting": "ECA917 F200Y (ben-1), 62.5 µM, score 0-1 relative to DMSO, values >1 set to 1", "value": 1.000}, {"measurement": "C. elegans L1 relative development & viability", "setting": "ECA917 F200Y (ben-1), 125 µM, score 0-1 relative to DMSO, values >1 set to 1", "value": 1.000}, {"measurement": "C. elegans L1 relative development & viability", "setting": "ECA917 F200Y (ben-1), 250 µM, score 0-1 relative to DMSO, values >1 set to 1", "value": 1.000}, {"measurement": "C. elegans L1 relative development & viability", "setting": "ECA917 F200Y (ben-1), 500 µM, […]", "value": 0.056}, {"measurement": "C. elegans L1 relative development & viability", "setting": "ECA1075 F167Y (ben-1), 1 µM, score 0-1 relative to DMSO, values >1 set to 1", "value": 1.000}, {"measurement": "C. elegans L1 relative development & viability", "setting": "ECA1075 F167Y (ben-1), 2 µM, score 0-1 relative to DMSO, values >1 set to 1", "value": 1.000}, {"measurement": "C. elegans L1 relative development & viability", "setting": "ECA1075 F167Y (ben-1), 3.9 µM, score 0-1 relative to DMSO, values >1 set to 1", "value": 1.000}, {"measurement": "C. elegans L1 relative development & viability", "setting": "ECA1075 F167Y (ben-1), 15.6 µM, score 0-1 relative to DMSO, values >1 set to 1", "value": 1.000}, {"measurement": "C. elegans L1 relative development & viability", "setting": "ECA1075 F167Y (ben-1), 31.3 µM, score 0-1 relative to DMSO, values >1 set to 1", "value": 1.000}, {"measurement": "C. elegans L1 relative development & viability", "setting": "ECA1075 F167Y (ben-1), 62.5 µM, score 0-1 relative to DMSO, values >1 set to 1", "value": 1.000}, {"measurement": "C. elegans L1 relative development & viability", "setting": "ECA1075 F167Y (ben-1), 125 µM, score 0-1 relative to DMSO, values >1 set to 1", "value": 1.000}, {"measurement": "C. elegans L1 relative development & viability", "setting": "ECA1075 F167Y (ben-1), 250 µM, score 0-1 relative to DMSO, values >1 set to 1", "value": 1.000}, {"measurement": "C. elegans L1 relative development & viability", "setting": "ECA1075 F167Y (ben-1), 500 µM, […]", "value": 0.028}, {"measurement": "C. elegans L1 relative development & viability", "setting": "ECA1080 E198A (ben-1), 1 µM, score 0-1 relative to DMSO, values >1 set to 1", "value": 1.000}, {"measurement": "C. elegans L1 relative development & viability", "setting": "ECA1080 E198A (ben-1), 2 µM, score 0-1 relative to DMSO, values >1 set to 1", "value": 1.000}, {"measurement": "C. elegans L1 relative development & viability", "setting": "ECA1080 E198A (ben-1), 3.9 µM, score 0-1 relative to DMSO, values >1 set to 1", "value": 1.000}, {"measurement": "C. elegans L1 relative development & viability", "setting": "ECA1080 E198A (ben-1), 15.6 µM, score 0-1 relative to DMSO, values >1 set to 1", "value": 1.000}, {"measurement": "C. elegans L1 relative development & viability", "setting": "ECA1080 E198A (ben-1), 31.3 µM, score 0-1 relative to DMSO, values >1 set to 1", "value": 1.000}, {"measurement": "C. elegans L1 relative development & viability", "setting": "ECA1080 E198A (ben-1), 62.5 µM, score 0-1 relative to DMSO, values >1 set to 1", "value": 1.000}, {"measurement": "C. elegans L1 relative development & viability", "setting": "ECA1080 E198A (ben-1), 125 µM, score 0-1 relative to DMSO, values >1 set to 1", "value": 1.000}, {"measurement": "C. elegans L1 relative development & viability", "setting": "ECA1080 E198A (ben-1), 250 µM, score 0-1 relative to DMSO, values >1 set to 1", "value": 1.000}, {"measurement": "C. elegans L1 relative development & viability", "setting": "ECA1080 E198A (ben-1), 500 µM, […]", "value": 0.041}]}
